# Measured values published in ChEMBL document CHEMBL1129227, “Synthesis and in vitro cytotoxic activity of novel hexahydro-2H-pyrido[1,2-b]isoquinolines against human brain tumor cell lines” (1997).
# Tests used:
# Assay type in all cases: functional
# Details in all cases: read-out: LC50 (the source's name)
# T98G = assay: Compound was evaluated for the in vitro cytotoxicity against T98G human glioblastoma cell line
# A 172 = assay: Compound was evaluated for the in vitro cytotoxicity against A-172 human glioblastoma cell line
# D283 Med = assay: Compound was evaluated for the in vitro cytotoxicity against […] Med human brain medulloblastoma tumor cell line
compound,measurement,setting,value
CC(C)[C@H]1CCN2Cc3ccccc3C[C@H]2[C@H]1/N=C/c1ccc(Cl)cc1,CC50,T98G,45 µM
same,CC50,A 172,97 µM
same,CC50,D283 Med,50 µM
CC(C)[C@H]1CCN2Cc3ccccc3C[C@H]2[C@H]1/N=C/c1ccccc1,CC50,T98G,222 µM
same,CC50,A 172,226 µM
C=C(C)[C@H]1CCN2Cc3ccccc3C[C@H]2[C@@H]1NCC(F)(F)F,CC50,T98G,172 µM
same,CC50,A 172,157 µM
same,CC50,D283 Med,40 µM
C=C(C)[C@H]1CCN2Cc3ccccc3C[C@H]2[C@H]1NCc1ccc(Cl)cc1,CC50,T98G,42 µM
same,CC50,A 172,55 µM
same,CC50,D283 Med,29 µM
C=C(C)[C@H]1CCN2Cc3ccccc3C[C@H]2[C@@H]1NCc1ccccc1,CC50,T98G,43 µM
same,CC50,A 172,58 µM
same,CC50,D283 Med,53 µM
C=C(C)[C@H]1CCN2Cc3ccccc3C[C@H]2[C@H]1O,CC50,A 172,158 µM
same,CC50,D283 Med,143 µM
